The numbers were not newly measured in patent US10919913B2, “Spiro[3H-indole-3,2′-pyrrolidin]-2(1H)-one compounds and derivatives as MDM2-p53 inhibitors” (Boehringer Ingelheim International GmbH, priority 2014, dated 2021), which cites them from elsewhere.

This data set deals with p53 wild-type vs. p53 mutant cell lines. The note with it: in vitro, PPTP of the NCI (Carol et al. 2013).

Consider `CCOc1cc(C(C)(C)C)ccc1C1=N[C@@](C)(c2ccc(Cl)cc2)[C@@](C)(c2ccc(Cl)cc2)N1C(=O)N1CCN(CCCS(C)(=O)=O)CC1` [RG-7112], for which the “cytotoxic activity, median IC50 p53 wild-type vs. p53 mutant cell lines” value was “lower median IC50 values for p53 wild-type vs. p53 mutant cell lines”.
